Data on 37 compounds can be found in patent publication US9115079B2, “NDM inhibitor” (priority 2011, dated 2015).

pIC50: −log10 of the molar value. Structures can show the parent of a compound that is named as a salt.

Chain of NDM-1 (C7C422 29-270, looked up): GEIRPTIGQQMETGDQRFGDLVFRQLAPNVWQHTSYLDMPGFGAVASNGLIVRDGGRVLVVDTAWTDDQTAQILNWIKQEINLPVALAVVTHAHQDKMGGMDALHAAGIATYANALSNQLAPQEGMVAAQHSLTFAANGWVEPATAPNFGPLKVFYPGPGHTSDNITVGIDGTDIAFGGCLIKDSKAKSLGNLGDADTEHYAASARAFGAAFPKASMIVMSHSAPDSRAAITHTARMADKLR

This assay addresses NDM-1 (Klebsiella pneumoniae, UniProt C7C422). Kind of assay: biochemical. Particulars: NDM-1 2.5 nM, 100 μM imipenem as substrate, 100 μM ZnSO4, pH 7.5, 30° C. The protocol: Amplification was carried out by a polymerase chain reaction (PCR) with Pyrobest DNA polymerase (Takara Bio) in which a plasmid having an NDM-1 gene sequence (GenBank Accession number: FN396876) synthesized by Life Technologies Japan Ltd. (consignment synthesis) was used as a template and two primers ([…] and […]) were used. The amplified DNA fragments were digested with restriction enzymes Nco I and Xho I and were incorporated in a vector pET-28a(+) to acquire a recombinant plasmid. The plasmid was transformed into E. coli BL21(DE3) (Novagen), and the transformants thus obtained were grown to an absorbance at 600 nm of about 0.7 in 0.8 L of an SB medium (1.2% (w/v) bacto tryptone, 2.4% (w/v) yeast extract, 0.5% (v/v) glycerol, 0.072 M dipotassium hydrogenphosphate, and 0.028 M potassium dihydrogenphosphate) containing 30 μg/ml kanamycin. Isopropyl-β-D-thiogalactopyranoside was added to a final concentration of 1 mM, and induction was carried out at 20° C. overnight, followed by harvesting with a centrifuge.
50 mM HEPES (pH 7.5), 20 μg/ml BSA, 100 μM ZnSO4, 2% DMSO, and 100 μM imipenem as a substrate (these concentrations being final concentration) were added into a 1 ml quartz cell. […] A plurality of inhibitor concentrations were studied, a sigmoid curve was prepared from each inhibitory activity, and IC50 values were calculated.
In turn, `CCC/C(C(=O)O)=C(\CCC)C(=O)O` [Example 2, Disodium 2,3-di-n-propylmaleate] had a negative-log IC50 (pIC50) of 4.52 to 5.00.
In turn, `CC/C(C(=O)O)=C(\Cc1ccccc1)C(=O)O` [Example 4, Disodium 2-benzyl-3-ethylmaleate] had a pIC50 of 4.52 to 5.00.
In turn, `CC/C(C(=O)O)=C(\Cc1ccc(O)cc1)C(=O)O` [Example 5, Disodium 3-ethyl-2-(4-hydroxybenzyl)maleate] showed a pIC50 greater than 5.00.
`O=C(O)/C(Cc1ccccc1)=C(/Cc1ccccc1)C(=O)O` [Example 6, Disodium 2,3-dibenzylmaleate]: the pIC50 was greater than 5.00.
`O=C(O)/C(CCc1ccccc1)=C(/Cc1ccccc1)C(=O)O` [Example 7, Disodium 2-benzyl-3-phenethylmaleate]: the negative logarithm of the IC50 (pIC50) was greater than 5.00.
For `O=C(O)/C(CCc1ccccc1)=C(/CCc1ccccc1)C(=O)O` [Example 8, Disodium 2,3-diphenethylmaleate], the negative-log IC50 (pIC50) is greater than 5.00.
`C/C(C(=O)O)=C(/C(=O)O)C(C)C` [Example 9, Disodium 2-isopropyl-3-methylmaleate] gave a pIC50 of 4.00 to 4.52.
In turn, `CC/C(C(=O)O)=C(/C(=O)O)C(C)C` [Example 10, Disodium 3-ethyl-2-isopropylmaleate] showed a pIC50 of 4.52 to 5.00.
Consider `CC(C)/C(C(=O)O)=C(/C(=O)O)C(C)C` [Example 11, Disodium 2,3-diisopropylmaleate], for which the pIC50 was 4.52 to 5.00.
Compound `CC(C)/C(C(=O)O)=C(\Cc1ccccc1)C(=O)O` [Example 12, Disodium 3-benzyl-2-isopropylmaleate] had a pIC50 of 4.52 to 5.00.
Regarding `Cc1ccccc1C/C(C(=O)O)=C(/C(=O)O)C(C)C` [Example 13, Disodium 2-isopropyl-3-(2-methylphenyl)methylmaleate], the pIC50 is 4.52 to 5.00.
In turn, `CC/C(C(=O)O)=C(/C(=O)O)C1CCCC1` [Example 14, Disodium 2-cyclopentyl-3-ethylmaleate] gave a pIC50 greater than 5.00.
Consider `CC(C)/C(C(=O)O)=C(/C(=O)O)C1CCCC1` [Example 15, Disodium 2-cyclopentyl-3-isopropylmaleate], for which the pIC50 is greater than 5.00.
Under `O=C(O)/C(Cc1ccccc1)=C(\C(=O)O)C1CCCC1` [Example 16, Disodium 3-benzyl-2-cyclopentylmaleate] stands greater than 5.00.
The result for `O=C(O)/C(=C(\C(=O)O)C1CCCC1)C1CCCC1` [Example 17, Disodium 2,3-dicyclopentylmaleate] reads greater than 5.00; that for `CC(C)/C(C(=O)O)=C(/C(=O)O)C1Cc2ccccc2C1` [Example 18, Disodium 2-(2,3-dihydro-1H-inden-2-yl)-3-isopropylmaleate], greater than 5.00; that for `CC(C)/C(C(=O)O)=C(/C(=O)O)C1CCCCC1` [Example 19, Disodium 2-cyclohexyl-3-isopropylmaleate], greater than 5.00.
On to `CC(C)/C(C(=O)O)=C(/C(=O)O)[C@H]1CC[C@@H](O)CC1` [Example 21, Disodium 2-(cis-4-hydroxycyclohexyl)-3-isopropylmaleate], for which the pIC50 is greater than 5.00.
Consider `CC(C)/C(C(=O)O)=C(/C(=O)O)C1CCOCC1` [Example 22, Disodium 3-isopropyl-2-(tetrahydropyran-4-yl)maleate], for which the pIC50 was 4.52 to 5.00.
For the compound `CC(C)/C(C(=O)O)=C(\Cc1cccnc1)C(=O)O` [Example 23, Disodium 2-isopropyl-3-[(pyridine-3-yl)methyl]maleate], the pIC50 was 4.00 to 4.52.
Regarding `CC/C(C(=O)O)=C(\SC(C)C)C(=O)O` [Example 24, Disodium 3-ethyl-2-isopropylthiomaleate], the pIC50 is 4.00 to 4.52.
For `CC(C)/C(C(=O)O)=C(\Cc1ccc(C(=O)O)cc1)C(=O)O` [Example 25, Trisodium 2-(4-carboxybenzyl)-3-isopropylmaleate], the pIC50 was 4.52 to 5.00.
Turning to `CC(C)/C(C(=O)O)=C(\Cc1ccc(C(N)=O)cc1)C(=O)O` [Example 26, Disodium 2-(4-carbamoylbenzyl)-3-isopropylmaleate], the pIC50 is 4.52 to 5.00.
On to `CC(C)/C(C(=O)O)=C(\Cc1ccc(C(=O)N2CCOCC2)cc1)C(=O)O` [Example 27, Disodium 2-isopropyl-3-[4-(morpholine-1-carbonyl)benzyl]maleate], for which the pIC50 is 4.52 to 5.00.
As for `CC(C)/C(C(=O)O)=C(\Cc1ccc(C(=O)N2CCC(O)CC2)cc1)C(=O)O` [Example 28, Disodium 2-[4-(4-hydroxypiperidine-1-carbonyl)benzyl]-3-isopropylmaleate], the pIC50 was 4.00 to 4.52.
In the case of `CC(C)/C(C(=O)O)=C(\Cc1ccc(C(=O)NCC(N)=O)cc1)C(=O)O` [Example 29, Disodium 2-[4-(2-amino-2-oxoethylcarbamoyl)benzyl]-3-isopropylmaleate], the negative-log IC50 (pIC50) was greater than 5.00.
Compound `COc1ccc(C/C(C(=O)O)=C(/C(=O)O)C(C)C)cc1` [Example 30, Disodium 2-isopropyl-3-(4-methoxybenzyl)maleate] gave a pIC50 greater than 5.00.
Take `CC(C)/C(C(=O)O)=C(\Cc1ccc(O)cc1)C(=O)O` [Example 31, Trisodium 2-(4-oxidobenzyl)-3-isopropylmaleate]: the pIC50 is 4.52 to 5.00.
For `CC(C)/C(C(=O)O)=C(\Cc1ccc(OCC(=O)O)cc1)C(=O)O` [Example 32], the pIC50 was greater than 5.00.
On to `CC(C)/C(C(=O)O)=C(\Cc1ccc(OCC(N)=O)cc1)C(=O)O` [Example 33, Disodium 2-[4-(2-amino-2-oxoethoxy)benzyl]-3-isopropylmaleate], for which the pIC50 is greater than 5.00.
Under `CC(C)/C(C(=O)O)=C(\Cc1ccc(OCCN)cc1)C(=O)O` [Example 34, Disodium 2-[4-(2-aminoethoxy)benzyl]-3-isopropylmaleate] stands greater than 5.00; under `CC(C)/C(C(=O)O)=C(\Cc1ccc(OCCn2ccnc2)cc1)C(=O)O` [Example 35, Disodium 2-{4-[2-(1H-imidazol-1-yl)ethoxy]benzyl}-3-isopropylmaleate], greater than 5.00.
Compound `CC(C)/C(C(=O)O)=C(\Cc1ccc(OC2CCNC2)cc1)C(=O)O` (stereo not shown) [Example 36, Disodium 2-isopropyl-3-[4-(pyrrolidin-3-yloxy)benzyl]maleate] gave a pIC50 greater than 5.00.
Consider `CC(C)/C(C(=O)O)=C(\Cc1ccc(OCCNC(=N)N)cc1)C(=O)O` [Example 37, Disodium 2-[4-(2-guanidinoethoxy)benzyl]-3-isopropyl maleate], for which the pIC50 was 4.00 to 4.52.
Regarding `O=C(O)/C(=C(\C(=O)O)[C@H]1CC[C@@H](O)CC1)C1CCCC1` [Example 38, Disodium 2-cyclopentyl-3-(cis-4-hydroxycyclohexyl)maleate], the pIC50 is greater than 5.00.
Compound `O=C(O)/C(=C(\C(=O)O)[C@H]1CC[C@@H](O)CC1)[C@H]1CC[C@@H](O)CC1` [Example 39, Disodium 2,3-bis(cis-4-hydroxycyclohexyl)maleate] gave a pIC50 greater than 5.00.
In turn, `O=C(O)/C(=C(\C(=O)O)C1CCOCC1)C1CCOCC1` [Example 40, Disodium 2,3-bis(tetrahydro-2H-pyran-4-yl)maleate] gave a pIC50 of 4.00 to 4.52.
